According to ChEMBL document CHEMBL3885861, “Open TG-GATES”:

Species: Rattus norvegicus
Assay: Open TG-GATES - Regimen: Daily Repeat
Assay type: toxicity, organism-based, Sprague-Dawley
Parameters: regimen Daily Repeat, gender Male, age 6 weeks
Conditions: in vivo, po, 0 mg/kg, route gavage, dose level Control; for APTT / Bas / Eos / Fbg / Hb / Ht / Lym / MCH / MCHC / MCV / Mono / Neu / PT / Plat / RBC / Ret / WBC: tissue Blood; for KIDNEY_L / KIDNEY_R / KIDNEY_TOTAL: tissue Kidney; for LIVER: tissue Liver; for A/G / ALP / ALT / AST / BUN / CRE / Ca / Cl / DBIL / GLC / IP / K / LDH / Na / PL / RALB / TBIL / TC / TG / TP / gamma-GTP: tissue Plasma

Compound: CN1C(=O)CCS(=O)(=O)C1c1ccc(Cl)cc1 (configuration not stated) [CHLORMEZANONE]
- TERMINAL_BW (72 h, time 3 day): 227.8 g
- APTT (72 h, time 3 day): 15.7 s
- Bas (72 h, time 3 day): 0%
- Eos (72 h, time 3 day): 1%
- Fbg (72 h, time 3 day): 283.6 mg/dL
- Hb (72 h, time 3 day): 13.4 g/dL
- Ht (72 h, time 3 day): 39.1%
- Lym (72 h, time 3 day): 77.8%
- MCH (72 h, time 3 day): 22.1 pg
- MCHC (72 h, time 3 day): 34.4%
- MCV (72 h, time 3 day): 64.3 fL
- Mono (72 h, time 3 day): 3%
- Neu (72 h, time 3 day): 17.8%
- PT (72 h, time 3 day): 12 s
- Plat (72 h, time 3 day): 114.7 x10_4/uL
- RBC (72 h, time 3 day): 608.2 x10_4/ul
- Ret (72 h, time 3 day): 6.7%
- WBC (72 h, time 3 day): 81.1 x10_2/uL
- KIDNEY_L (72 h, time 3 day): 0.9 g
- KIDNEY_R (72 h, time 3 day): 0.9 g
- KIDNEY_TOTAL (72 h, time 3 day): 1.8 g
- LIVER (72 h, time 3 day): 10.6 g
- A/G (72 h, time 3 day): 0.9
- ALP (72 h, time 3 day): 1545.4 IU/L
- ALT (72 h, time 3 day): 48.4 IU/L
- AST (72 h, time 3 day): 68.2 IU/L
- BUN (72 h, time 3 day): 14.6 mg/dL
- CRE (72 h, time 3 day): 0.2 mg/dL
- Ca (72 h, time 3 day): 10.9 mg/dL
- Cl (72 h, time 3 day): 108.4 meq/L
- DBIL (72 h, time 3 day): 0.01 mg/dL
- GLC (72 h, time 3 day): 193.6 mg/dL
- IP (72 h, time 3 day): 6.7 mg/dL
- K (72 h, time 3 day): 4.2 meq/L
- LDH (72 h, time 3 day): 63.4 IU/L
- Na (72 h, time 3 day): 143.4 meq/L
- PL (72 h, time 3 day): 148.4 mg/dL
- RALB (72 h, time 3 day): 2.7 g/dL
- TBIL (72 h, time 3 day): 0.026 mg/dL
- TC (72 h, time 3 day): 88.8 mg/dL
- TG (72 h, time 3 day): 90 mg/dL
- TP (72 h, time 3 day): 5.8 g/dL
- gamma-GTP (72 h, time 3 day): 1.2 IU/L
- TERMINAL_BW ([…], time 7 day): 269.2 g
- TERMINAL_BW ([…], time 14 day): 301.6 g
- TERMINAL_BW ([…], time 28 day): 393 g
- APTT ([…], time 7 day): 17.6 s
- Bas ([…], time 7 day): 0%
- Eos ([…], time 7 day): 0.8%
- Fbg ([…], time 7 day): 294.6 mg/dL
- Hb ([…], time 7 day): 13.9 g/dL
- Ht ([…], time 7 day): 41%
- Lym ([…], time 7 day): 79.4%
- MCH ([…], time 7 day): 22.1 pg
- MCHC ([…], time 7 day): 33.9%
- MCV ([…], time 7 day): 65.3 fL
- Mono ([…], time 7 day): 2.4%
- Neu ([…], time 7 day): 16.6%
- PT ([…], time 7 day): 11.9 s
- Plat ([…], time 7 day): 113.1 x10_4/uL
- RBC ([…], time 7 day): 627.6 x10_4/ul
- Ret ([…], time 7 day): 6.5%
- WBC ([…], time 7 day): 91.2 x10_2/uL
- APTT ([…], time 14 day): 16.9 s
- Bas ([…], time 14 day): 0%
- Eos ([…], time 14 day): 1%
- Fbg ([…], time 14 day): 306.8 mg/dL
- Hb ([…], time 14 day): 14.5 g/dL
- Ht ([…], time 14 day): 41.2%
- Lym ([…], time 14 day): 76.2%
- MCH ([…], time 14 day): 20.7 pg
- MCHC ([…], time 14 day): 35.3%
- MCV ([…], time 14 day): 58.8 fL
- Mono ([…], time 14 day): 2%
- Neu ([…], time 14 day): 20.4%
- PT ([…], time 14 day): 11.8 s
- Plat ([…], time 14 day): 123 x10_4/uL
- RBC ([…], time 14 day): 701 x10_4/ul
- Ret ([…], time 14 day): 3.5%
- WBC ([…], time 14 day): 70.8 x10_2/uL
- APTT ([…], time 28 day): 17.9 s
- Bas ([…], time 28 day): 0%
- Eos ([…], time 28 day): 1%
- Fbg ([…], time 28 day): 293.6 mg/dL
- Hb ([…], time 28 day): 15 g/dL
- Ht ([…], time 28 day): 42.2%
- Lym ([…], time 28 day): 75.4%
- MCH ([…], time 28 day): 20.2 pg
- MCHC ([…], time 28 day): 35.5%
- MCV ([…], time 28 day): 56.8 fL
- Mono ([…], time 28 day): 2.4%
- Neu ([…], time 28 day): 20.6%
- PT ([…], time 28 day): 11.8 s
- Plat ([…], time 28 day): 99.4 x10_4/uL
- RBC ([…], time 28 day): 744.8 x10_4/ul
- Ret ([…], time 28 day): 2.6%
- WBC ([…], time 28 day): 82.8 x10_2/uL
- KIDNEY_L ([…], time 7 day): 1 g
- KIDNEY_R ([…], time 7 day): 1 g
- KIDNEY_TOTAL ([…], time 7 day): 2.1 g
- KIDNEY_L ([…], time 14 day): 1.2 g
- KIDNEY_R ([…], time 14 day): 1.1 g
- KIDNEY_TOTAL ([…], time 14 day): 2.3 g
- KIDNEY_L ([…], time 28 day): 1.4 g
- KIDNEY_R ([…], time 28 day): 1.3 g
- KIDNEY_TOTAL ([…], time 28 day): 2.7 g
- LIVER ([…], time 7 day): 13 g
- LIVER ([…], time 14 day): 12.6 g
- LIVER ([…], time 28 day): 16 g
- A/G ([…], time 7 day): 0.9
- ALP ([…], time 7 day): 1745 IU/L
- ALT ([…], time 7 day): 44 IU/L
- AST ([…], time 7 day): 68.2 IU/L
- BUN ([…], time 7 day): 16.6 mg/dL
- CRE ([…], time 7 day): 0.2 mg/dL
- Ca ([…], time 7 day): 11.6 mg/dL
- Cl ([…], time 7 day): 107.8 meq/L
- DBIL ([…], time 7 day): 0.016 mg/dL
- GLC ([…], time 7 day): 181.4 mg/dL
- IP ([…], time 7 day): 6.9 mg/dL
- K ([…], time 7 day): 4.3 meq/L
- LDH ([…], time 7 day): 89.8 IU/L
- Na ([…], time 7 day): 144 meq/L
- PL ([…], time 7 day): 152 mg/dL
- RALB ([…], time 7 day): 2.8 g/dL
- TBIL ([…], time 7 day): 0.034 mg/dL
- TC ([…], time 7 day): 82.6 mg/dL
- TG ([…], time 7 day): 121.6 mg/dL
- TP ([…], time 7 day): 6 g/dL
- gamma-GTP ([…], time 7 day): 1 IU/L
- A/G ([…], time 14 day): 0.8
- ALP ([…], time 14 day): 1484.4 IU/L
- ALT ([…], time 14 day): 48 IU/L
- AST ([…], time 14 day): 63.8 IU/L
- BUN ([…], time 14 day): 14.4 mg/dL
- CRE ([…], time 14 day): 0.2 mg/dL
- Ca ([…], time 14 day): 11.2 mg/dL
- Cl ([…], time 14 day): 107.8 meq/L
- DBIL ([…], time 14 day): 0.008 mg/dL
- GLC ([…], time 14 day): 191.6 mg/dL
- IP ([…], time 14 day): 6.3 mg/dL
- K ([…], time 14 day): 4 meq/L
- LDH ([…], time 14 day): 47 IU/L
- Na ([…], time 14 day): 143.6 meq/L
- PL ([…], time 14 day): 136.4 mg/dL
- RALB ([…], time 14 day): 2.8 g/dL
- TBIL ([…], time 14 day): 0.064 mg/dL
- TC ([…], time 14 day): 70.8 mg/dL
- TG ([…], time 14 day): 74.8 mg/dL
- TP ([…], time 14 day): 6.1 g/dL
- gamma-GTP ([…], time 14 day): 1 IU/L
- A/G ([…], time 28 day): 0.8
- ALP ([…], time 28 day): 1035.2 IU/L
- ALT ([…], time 28 day): 45.6 IU/L
- AST ([…], time 28 day): 62.8 IU/L
- BUN ([…], time 28 day): 14 mg/dL
- CRE ([…], time 28 day): 0.3 mg/dL
- Ca ([…], time 28 day): 10.8 mg/dL
- Cl ([…], time 28 day): 106.2 meq/L
- DBIL ([…], time 28 day): 0.006 mg/dL
- GLC ([…], time 28 day): 183.2 mg/dL
- IP ([…], time 28 day): 6 mg/dL
- K ([…], time 28 day): 4 meq/L
- LDH ([…], time 28 day): 57 IU/L
- Na ([…], time 28 day): 142.4 meq/L
- PL ([…], time 28 day): 143.6 mg/dL
- RALB ([…], time 28 day): 2.8 g/dL
- TBIL ([…], time 28 day): 0.062 mg/dL
- TC ([…], time 28 day): 74.8 mg/dL
- TG ([…], time 28 day): 88 mg/dL
- TP ([…], time 28 day): 6.3 g/dL
- gamma-GTP ([…], time 28 day): 1 IU/L
